Source: patent publication US11396517B1, “Exo-aza spiro inhibitors of menin-MLL interaction” (Janssen Pharmaceutica NV, priority 2017, dated 2022)
Like-named read-outs stand apart in the source and are kept apart here.

Experiments:
menin = molecular target: T1, menin (Homo sapiens, UniProt O00255, T541A); experiment: Menin/MLL homogenous time-resolved fluorescence (HTRF) assay; type: binding
T1 construct: Menin (a.a. 1-610-6×his tag)
T1 sequence (O00255 with tags, fused parts or gaps T541A): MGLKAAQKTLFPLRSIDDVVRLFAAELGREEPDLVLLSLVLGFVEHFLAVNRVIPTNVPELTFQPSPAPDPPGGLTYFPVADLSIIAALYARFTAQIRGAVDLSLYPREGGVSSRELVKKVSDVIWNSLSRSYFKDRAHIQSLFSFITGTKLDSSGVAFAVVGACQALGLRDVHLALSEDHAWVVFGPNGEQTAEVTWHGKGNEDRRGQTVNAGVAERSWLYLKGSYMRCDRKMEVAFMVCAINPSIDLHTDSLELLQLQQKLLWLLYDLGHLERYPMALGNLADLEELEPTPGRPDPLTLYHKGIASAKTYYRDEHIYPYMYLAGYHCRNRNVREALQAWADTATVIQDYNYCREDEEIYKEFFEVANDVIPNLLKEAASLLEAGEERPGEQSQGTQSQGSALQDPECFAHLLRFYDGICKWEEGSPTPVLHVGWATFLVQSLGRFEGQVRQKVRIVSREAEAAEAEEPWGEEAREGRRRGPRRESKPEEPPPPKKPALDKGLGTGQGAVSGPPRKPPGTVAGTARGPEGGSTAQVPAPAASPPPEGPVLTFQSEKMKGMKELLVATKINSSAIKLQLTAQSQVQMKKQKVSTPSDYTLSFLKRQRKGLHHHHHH
Outline: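 Displacement of 75 nM FITC-MBM1 from terbium-cryptate-labeled His-tagged menin 1-610 ([…]) was read as the 520/490 nm HTRF ratio. Compound (11-point, 3-fold series) got 5 min with menin before peptide, then 15 min at ambient; 0.5% DMSO, Tris pH 7.5.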

MOLM14 = experiment: Proliferation assay B (spheroid assay) MOLM14; type: cell-based, human; conditions: MOLM14 cells, confluence at day 8, absolute IC50, read-out: (3b) Spheroid assay MOLM14 (IC50(μM)) Assay B
Experimental: 3b) Proliferation Assay B
The anti-proliferative effect of menin/MLL protein/protein interaction inhibitor test compounds was assessed in human leukemia cell lines. The cell lines MV-4-11 and MOLM14 harbor MILL translocations and express the MILL fusion proteins MLL-AF4 and MLL-AF9, respectively, as well as the wildtype protein from the second allele. […] K562 was used as a control cell line containing two MLL wildtype alleles in order to exclude compounds that display general cytotoxic effects.
MV-4-11 and MOLM14 were cultured in RPMI-1640 (Sigma Aldrich) supplemented with 10% fetal bovine serum (HyClone), 2 mM L-glutamine (Sigma Aldrich) and 50 μg/ml gentamycin (Gibco). K562 were propagated in RPMI-1640 (Sigma Aldrich) supplemented with 20% fetal bovine serum (HyClone), 2 mM L-glutamine (Sigma Aldrich) and 50 μg/ml gentamycin (Gibco).
In order to assess the anti-proliferative effects, 1,500 MV-4-11, 300 MOLM14 cells or 750 K562 cells were seeded in 200 μl media per well in 96-well round bottom, ultra-low attachment plates (Costar, catalogue number 7007). Cell seeding numbers were chosen based on growth curves to ensure linear growth throughout the experiment. Test compounds were added at different concentrations and the DMSO content was normalized to 0.3%. Cells were incubated for 8 d at 37° C. and 5% CO2. Spheroid like growth was measured in real-time by live-cell imaging (IncuCyteZOOM, Essenbio, 4× objective) acquiring images at day 8. Confluence (%) as a measure of spheroid size was determined using an integrated analysis tool.
In order to determine the effect of the test compounds over time, the confluence in each well as a measure of spheroid size, was calculated. Confluence […] at the beginning of the experiment (t=0) was used as baseline for the calculation.
Absolute IC50 values were calculated as percent change in confluence as follows:
LC=Low Control: cells treated with 1 μM of the cytotoxic agent staurosporin
HC=High Control: Mean confluence (%) (DMSO treated cells) % Effect=100−(100*(Sample−LC)/(HC−LC))
To determine the IC50 a curve is fitted to the plot of % Effect vs Log 10 compound concentration using a sigmoidal fit with a variable slope and fixing the maximum to 100% and the minimum to 0%.

[1] = location 2, read-out: (2) location 2 Menin HTRF assay (IC50 (nM))
[2] = location 1, read-out: (2) location 1 Menin HTRF assay (IC50 (nM))

Compound | IC50 (menin; [1]) [nM] | IC50 (MOLM14; Homo sapiens, MOLM-14, 192 h) [µM] | IC50 (MOLM14) [µM] | IC50 (menin; [2]) [nM]
CS(=O)(=O)N1CCN(C(=O)c2ccc(NC3CC4(CCN(c5ncnc6sc(CC(F)(F)F)cc56)C4)C3)cc2)CC1 (single isomer, unassigned) [Compound 178] | 127 | > 3.75 | – | –
COC1CCN(C(=O)c2ccc(NC3CC4(CCN(c5ncnc6sc(CC(F)(F)F)cc56)C4)C3)cc2)CC1 (single isomer, unassigned) [Compound 183] | 82 | > 3.75 | – | –
O=C(c1ccc(NC2CC3(CCN(c4ncnc5sc(CC(F)(F)F)cc45)C3)C2)cc1)N1CCNCC1 (single isomer, unassigned) [Compound 187] | 1580 | > 3.75 | – | –
CS(=O)(=O)N1CCN(CCNC(=O)c2ccc(NC3CC4(CCN(c5ncnc6sc(CC(F)(F)F)cc56)C4)C3)cc2)CC1 (single isomer, unassigned) [Compound 189] | 143 | > 3.75 | – | –
CS(=O)(=O)N1CCN(CCNC(=O)c2ccc(NC3CC4(CCN(c5ncnc6sc(CC(F)(F)F)cc56)C4)C3)cc2)CC1 (single isomer, unassigned) [Compound 190] | 9.2 | – | 2.1 | –
CNC(=O)c1ccc(NC2CC3(CCN(c4ncnc5sc(CC(F)(F)F)cc45)C3)C2)cc1F (single isomer, unassigned) [Compound 205] | 2.2 | 1.02 | – | –
CNC(=O)c1ccc(NC2CC3(CCN(c4ncnc5sc(CC(F)(F)F)cc45)C3)C2)cn1 (single isomer, unassigned) [Compound 217] | 3.7 | – | 1.69 | –
CNC(=O)c1ccc(NC2CC3(CCN(c4ncnc5sc(CC(F)(F)F)cc45)C3)C2)cn1 (single isomer, unassigned) [Compound 218] | 64.9 | – | > 3.75 | –
O=S(=O)(c1ccc(NC2CC3(CCN(c4ncnc5sc(CC(F)(F)F)cc45)C3)C2)cc1)N1CCOCC1 (single isomer, unassigned) [Compound 219] | 2.6 | 2.4 | – | –
CNC(=O)c1ccc(NC2CC3(CCN(c4ncnc5sc(CC(F)(F)F)cc45)C3)C2)c(F)c1F (single isomer, unassigned) [Compound 227] | 80.2 | – | > 3.75 | –
CNC(=O)c1cc(F)c(NC2CC3(CCN(c4ncnc5sc(CC(F)(F)F)cc45)C3)C2)c(F)c1 (single isomer, unassigned) [Compound 228] | 84.2 | – | > 3.75 | –
CNC(=O)c1cc(F)c(NC2CC3(CCN(c4ncnc5sc(CC(F)(F)F)cc45)C3)C2)c(F)c1 (single isomer, unassigned) [Compound 229] | 0.9 | – | 1 | –
CNC(=O)c1ccc(NC2CC3(CCN(c4ncnc5sc(CC(F)(F)F)cc45)C3)C2)cc1C1CCN(C)CC1 (single isomer, unassigned) [Compound 230] | 489 | > 3.75 | – | –
CN1CCC(c2cc(NC3CC4(CCN(c5ncnc6sc(CC(F)(F)F)cc56)C4)C3)ccc2C(=O)N2CCOCC2)CC1 (single isomer, unassigned) [Compound 232] | 667 | > 3.75 | – | –
CC(C#N)(C#N)c1ccc(NC2CC3(CCN(c4ncnc5sc(CC(F)(F)F)cc45)C3)C2)cc1 (single isomer, unassigned) [Compound 234] | 116 | – | > 3.75 | –
CC(C#N)(C#N)c1ccc(NC2CC3(CCN(c4ncnc5sc(CC(F)(F)F)cc45)C3)C2)cc1 (single isomer, unassigned) [Compound 235] | 4.1 | – | 1.53 | –
CN(C)CCNC(=O)c1ccc(NC2CC3(CCN(c4ncnc5sc(CC(F)(F)F)cc45)C3)C2)c(F)c1 (single isomer, unassigned) [Compound 242] | 74.6 | – | > 3.75 | –

Compound | IC50 (menin; [1]) [nM] | IC50 (MOLM14; Homo sapiens, MOLM-14, 192 h) [µM] | IC50 (MOLM14) [µM] | IC50 (menin; [2]) [nM]
CN(C)CCNC(=O)c1ccc(NC2CC3(CCN(c4ncnc5sc(CC(F)(F)F)cc45)C3)C2)c(F)c1 (single isomer, unassigned) [Compound 243] | 2.9 | – | 1.11 | –
CNC(=O)c1c(F)cc(NC2CC3(CCN(c4ncnc5sc(CC(F)(F)F)cc45)C3)C2)cc1F (single isomer, unassigned) [Compound 245] | 7.7 | > 3.75 | – | –
CN(C)CCNC(=O)c1ccc(NC2CC3(CCN(c4ncnc5sc(CC(F)(F)F)cc45)C3)C2)nc1 (single isomer, unassigned) [Compound 253] | 235 | – | > 3.75 | –
O=C(c1cnc(NC2CC3(CCN(c4ncnc5sc(CC(F)(F)F)cc45)C3)C2)nc1)N1CCOCC1 (single isomer, unassigned) [Compound 258] | 108 | > 3.75 | – | –
FC(F)(F)Cc1cc2c(N3CC4(CC[C@H](Nc5ccc(-c6cn[nH]c6)cc5)C4)C3)ncnc2s1 (single isomer, unassigned) [Compound 304] | 17.3 | > 3.75 | – | –
CC(=O)Nc1ccc(NC2CC3(CCN(c4ncnc5sc(CC(F)(F)F)cc45)C3)C2)cc1 (single isomer, unassigned) [Compound 331] | 3.4 | 3.38 | – | –
O=C(c1ccc(NC2CC3(CCN(c4ncnc5sc(CC(F)(F)F)cc45)C3)C2)c(F)c1)N1CCOCC1 (single isomer, unassigned) [Compound 352] | 139 | – | > 3.75 | –
O=C(c1ccc(NC2CC3(CCN(c4ncnc5sc(CC(F)(F)F)cc45)C3)C2)c(F)c1)N1CCOCC1 (single isomer, unassigned) [Compound 353] | 17.3 | > 3.75 | – | –
CNC(=O)Cn1cc(NC2CC3(CCN(c4ncnc5sc(CC(F)(F)F)cc45)C3)C2)cn1 (single isomer, unassigned) [Compound 355] | 1460 | > 3.75 | – | –
CNC(=O)Cn1cc(NC2CC3(CCN(c4ncnc5sc(CC(F)(F)F)cc45)C3)C2)cn1 (single isomer, unassigned) [Compound 356] | 2680 | – | > 3.75 | –
N#CCn1c(=O)[nH]c2cc(NC3CC4(CCN(c5ncnc6sc(CC(F)(F)F)cc56)C4)C3)ccc21 (single isomer, unassigned) [Compound 357] | 3.1 | > 3.75 | – | –
N#CCn1c(=O)[nH]c2cc(NC3CC4(CCN(c5ncnc6sc(CC(F)(F)F)cc56)C4)C3)ccc21 (single isomer, unassigned) [Compound 358] | 5.3 | – | 3.5 | –
NC(=O)Cn1c(=O)[nH]c2cc(NC3CC4(CCN(c5ncnc6sc(CC(F)(F)F)cc56)C4)C3)ccc21 (single isomer, unassigned) [Compound 359] | 16.2 | > 3.75 | – | –
NC(=O)Cn1c(=O)[nH]c2cc(NC3CC4(CCN(c5ncnc6sc(CC(F)(F)F)cc56)C4)C3)ccc21 (single isomer, unassigned) [Compound 360] | 448 | – | > 3.75 | –
CN(C(=O)c1ccc(NC2CC3(CCN(c4ncnc5sc(CC(F)(F)F)cc45)C3)C2)cc1)S(C)(=O)=O (single isomer, unassigned) [Compound 363] | 46 | 2.1 | – | 44.1
CN(C(=O)c1ccc(NC2CC3(CCN(c4ncnc5sc(CC(F)(F)F)cc45)C3)C2)cc1)S(C)(=O)=O (single isomer, unassigned) [Compound 364] | 1.3 | – | 1.1 | 0.8
